Test results published in US20230129485A1, “SYSTEM AND METHOD FOR DETERMINING MATERIAL PROPERTIES OF MOLECULAR SYSTEMS FROM AN AB-INITIO PARAMETERIZED FORCE-FIELD” (InterX, Inc., priority 2021, published 2023).
Read-outs that look alike come from different tables or passages of the source.

Assays:
[1] = Free energy of hydration by Free Energy Machine Learning Model (FML); conditions: absolute error vs Exp (hydration)
Source text: Machine learning models can be used for free energy determination.

[2] = Free energy of hydration by COSMO implicit solvent model (MolPro ver. 2012); conditions: absolute error vs Exp (hydration)
Summary of the method: (§1)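 Implicit-solvent predictions of hydration free energy. MolPro supplied the COSMO solvation energies across the dataset. Predicted SMD and PCM values were received rather than computed here. Coverage for SMD, PCM and COSMO-RS matches the QM-parameterized force-field subset.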

[3] = Free energy of hydration by COSMO-RS
Summary of the method: as §1

[4] = Free energy of hydration by Solvation Model Dielectric (SMD) implicit solvent model; conditions: absolute error vs Exp (hydration)
Summary of the method: as §1

[5] = Free energy of hydration predicted with the QM-parameterized force field model (ARROW FF), classical MD and PIMD simulation in a water box; conditions: for Arrow PIMD8 Error: absolute error vs Exp (hydration); for Arrow error: Table 5, error of Arrow PIMD8 hydration free energy vs experiment
Summary of the method: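 Solute decoupled from solvent in a 32×32×32 Å3 water box (PME, 9 Å cutoffs), electrostatics, exchange-repulsion and dispersion switched off together over 15 lambda points with soft-coring. Steepest-descent minimization, 50 ps equilibration, 1 ns NPT production at 1 atm; classical and path-integral MD. Free energy from BAR and TI.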

[6] = CHEX/H2O partition coefficient, experimental, cited from earlier work; for Exp (log D): Table 3; for logD Exp (logD): Table 4
[7] = Free energy of hydration by Polarizable Continuum Model (PCM); conditions: absolute error vs Exp (hydration)
Summary of the method: as §1

[8] = implicit solvent model, values received; cited from earlier work
[9] = implicit solvent model, values received; cited from earlier work; remark: listed apart in the source
[10] = experimental, cited from earlier work
[11] = CHEX/H2O partition coefficient (log D) predicted with the QM-parameterized force field model (ARROW FF)
Summary of the method: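 Cyclohexane/water partition coefficients were predicted by molecular simulation with a QM-parameterized force field, with bonded force constants and equilibrium values fitted to MP2/aug-cc-pVTZ energies. Solutes carried neutral functional groups, and results from four independent groups were averaged.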

[12] = experimental, cited from earlier work; remark: listed apart in the source
[13] = Free energy of solvation in cyclohexane predicted with the QM-parameterized force field model (ARROW FF), MD and PIMD; conditions: Table 4; for CHEX Arrow MD Error: error of MD cyclohexane solvation free energy vs experiment; for CHEX Arrow PIMD4 Error: error of PIMD4 cyclohexane solvation free energy vs experiment
Summary of the method: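 Solute–cyclohexane interactions decoupled over 15 λ points with soft-core scaling, in MD and path-integral simulations under NPT at 1 atm using PME electrostatics and 9 Å cutoffs. Each window had 50 ps equilibration and 1 ns production; free energies from BAR and TI.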

[14] = Free energy of hydration predicted by General Amber Force Field (GAFF), from literature; conditions: Table 5; error of GAFF hydration free energy vs experiment
[15] = Free energy of hydration predicted by polarizable AMOEBA force field, from literature; conditions: Table 5; error of AMOEBA hydration free energy vs experiment
[16] = Table 5; free energy of hydration, GAFF prediction taken from literature; cited from earlier work
[17] = Table 5; free energy of hydration, AMOEBA prediction taken from literature; cited from earlier work
[18] = Table 3, absolute error of MD hydration free energy vs experiment
[19] = Table 3, absolute error of PIMD8 hydration free energy vs experiment
[20] = Table 3, free energy of hydration
[21] = Table 3, free energy of solvation in cyclohexane
[22] = Table 3, absolute error of MD log D vs experiment
[23] = Table 3, absolute error of PIMD log D vs experiment
[24] = Table 4, error of MD hydration free energy vs experiment
[25] = Table 4, error of PIMD8 hydration free energy vs experiment
[26] = Table 4, neutral amino-acid analogues
[27] = Table 4, solvation free energy in cyclohexane

Row | SMILES | FML error [1] [kcal/mol] | COSMO/Molpro Error [2] [kcal/mol] | COSMO-RS error [3] [kcal/mol] | SMD Error [4] [kcal/mol] | water Arrow MD Error [5, 18] [kcal/mol] | water Arrow PIMD8 Error [5, 19] [kcal/mol] | Arrow PIMD8 Error [5] [kcal/mol] | Exp (log D) [6] | PCM Error [7] [kcal/mol] | PCM free energy of hydration [8] [kcal/mol] | SMD free energy of hydration [9] [kcal/mol] | water Exp (hydration) [10, 20] [kcal/mol] | log D Arrow MD Error [11] | log D Arrow PIMD Error [11] | CHEX Exp (solvation) [12, 21] [kcal/mol] | also measured
1 | CCCC(C)=O [2-Pentanone] | 0.29 | 4.22 | 0.07 | 0.18 | 0.67 | 0.01 | 0.01 | 0.49 | 0.48 | -4.00 | -3.70 | -3.52 | 0.22 | 0.20 | -4.19 | –
2 | CCC(=O)CC [3-Pentanone] | 0.16 | 3.33 | 0.06 | 0.09 | 0.88 | 0.23 | 0.23 | 0.65 | 0.29 | -3.70 | -3.50 | -3.41 | 0.32 | 0.02 | -4.30 | –
3 | CC(C)=O [Acetone] | 0.34 | 4.55 | 0.90 | 0.30 | 0.33 | 0.31 | 0.31 | −0.83 | 0.40 | -4.20 | -4.10 | -3.80 | – | – | -2.67 | log D Arrow MD Error [11, 22]: 0.01; log D Arrow PIMD Error [11, 23]: 0.31
4 | CC(C)C [Isobutane] | 0.12 | 2.28 | 0.14 | 0.28 | 0.93 | 0.02 | 0.02 | 3.59 | 2.48 | -0.20 | 2.00 | 2.28 | 0.44 | 0.06 | -2.61 | water Arrow MD Error [5, 24]: 0.93 kcal/mol; water Arrow PIMD8 Error [5, 25]: 0.02 kcal/mol; logD Exp (logD) [6]: 3.59; CHEX Arrow MD Error [13]: 0.33 kcal/mol; CHEX Arrow PIMD4 Error [13]: 0.10 kcal/mol; water Exp (hydration) [10, 26]: 2.28 kcal/mol; logD Arrow MD Error [11]: 0.44; logD Arrow PIMD Error [11]: 0.06; CHEX Exp (solvation) [12, 27]: -2.61 kcal/mol
5 | c1cc[nH]c1 [Pyrrole] | 2.22 | 2.42 | 0.96 | – | 0.08 | 0.63 | 0.63 | – | – | – | – | -4.8 | – | – | – | GAFF error [14]: 0.93 kcal/mol; Arrow error [5]: 0.63 kcal/mol; AMOEBA error [15]: 1.00 kcal/mol; GAFF [16]: -3.87 kcal/mol; Exp (hydration) ([10]; Table 5, free energy of hydration): -4.80 kcal/mol; AMOEBA [17]: -3.80 kcal/mol
6 | CCCCC(C)=O [hexa2none] | 0.07 | 4.43 | 0.17 | 0.22 | 0.69 | 0.20 | 0.20 | 1.09 | 0.72 | -4.00 | -3.50 | -3.28 | – | – | -4.77 | log D Arrow MD Error [11, 22]: 0.07; log D Arrow PIMD Error [11, 23]: 0.11
7 | CCC=O [propionaldehyde] | 0.05 | 4.76 | 0.26 | 0.33 | 0.30 | 0.25 | 0.25 | – | 0.17 | – | – | – | – | – | – | GAFF error [14]: 0.02 kcal/mol; Arrow error [5]: 0.45 kcal/mol; AMOEBA error [15]: 0.35 kcal/mol; GAFF [16]: -3.41 kcal/mol; AMOEBA [17]: -3.08 kcal/mol
8 | CCC(N)=O [propionamide] | 2.21 | 3.50 | – | – | 1.21 | 0.17 | 0.17 | – | – | – | – | -9.4 | – | – | – | water Arrow MD Error [5, 24]: 1.21 kcal/mol; water Arrow PIMD8 Error [5, 25]: 0.17 kcal/mol; logD Exp (logD) [6]: −4.13; CHEX Arrow MD Error [13]: 0.48 kcal/mol; CHEX Arrow PIMD4 Error [13]: 0.34 kcal/mol; water Exp (hydration) [10, 26]: -9.4 kcal/mol; logD Arrow MD Error ([11]; Table 4, error of MD logD vs experiment): 0.54; logD Arrow PIMD Error ([11]; Table 4, error of PIMD logD vs experiment): 0.12; CHEX Exp (solvation) [12, 27]: -3.77 kcal/mol
